Patent US20220107317A1, “COMPOSITIONS AND METHODS FOR DIAGNOSING AND TREATING CORONAVIRUS DISEASE 2019” (priority 2020, published 2022)

Biological target: SARS-CoV-2 spike protein RBD (Severe acute respiratory syndrome coronavirus 2, UniProt P0DTC2)
Details: spike protein RBD and dimer of spike protein RBD, FIG. 4

DLSGFVRPDPVIISSPLSTFFSDAGYKSLLKITMTQSTVPLNLIRVHLMVAVEG HLFQKSFQASPNLAYTFIWDKTDAYGQRVYGLSDAVVSVGFEYETCPSLILW EKRTALLQGFELD [T2 peptide]
binding in Western blot: binding between T2 peptide to both spike protein RBD and the dimer of spike protein RBD
